# In patent US20260256792A1, “TREATMENT OF CHRONIC SPONTANEOUS URTICARIA BY ADMINISTERING (R)-2-[3-[4-AMINO-3-(2-FLUORO-4-PHENOXY-PHENYL)PYRAZOLO[3,4-D]PYRIMIDIN-1-YL]PIPERIDINE-1-CARBONYL]-4-METHYL-4-[4-(OXETAN-3-YL)PIPERAZIN-1-YL]PENT-2-ENENITRILE” (priority 2023, published 2026):
# System: moderate-to-severe chronic spontaneous urticaria (CSU)
# Test: Phase 2 CSU study: itch severity score over 7 days (ISS7)
# Format: in vivo, human
# Settings: Omalizumab-Naïve
# From the text: The study comprises a 12 week, randomized, double-blind, placebo-controlled, multi-center, dose-ranging efficacy and safety phase, followed by a 40 week open label extension (OLE) phase (see FIG. 1). The study consists of three phases and an optional OLE phase. […] Clinically, CSU is characterized by the spontaneous and recurrent appearance of pruritic hives. The proposed primary endpoints were the UAS7 at Week 12 in EU and EU reference countries and the ISS7 in the US. Regardless of where a participant was from, all assessments were the same. The UAS7 score is a composite score containing both the HSS7 and the ISS7. This allowed a global assessment of the two key components of urticaria: hives and itch. […] The UAS is a validated PRO measure. […] The daily UAS scores range from 0 to 6 point/day. […] Patients were to complete the UAS using the e-diary. […] The following secondary endpoints were to be analyzed using the same approach as for the primary endpoint: • Change from baseline in UAS7 at Week 4 • Change from baseline in UAS7 at Week 12 (for US and US reference countries) • Change from baseline in ISS7 at Week 12 (except US and US reference countries) • Change from baseline in HSS7 at Week 12
smiles,measurement,setting,value
"CC(C)(C=C(C#N)C(=O)N1CCC[C@@H](n2nc(-c3ccc(Oc4ccccc4)cc3F)c3c(N)ncnc32)C1)N1CCN(C2COC2)CC1 [rilzabrutinib, (R)-2-[3-[4-amino-3-(2-fluoro-4-phenoxy-phenyl)pyrazolo[3,4-d]pyrimidin-1-yl]piperidine-1-carbonyl]-4-methyl-4-[4-(oxetan-3-yl)piperazin-1-yl]pent-2-enenitrile]",ISS7 Post-baseline Mean (SD),"outlier removed, 400 mg TID, Week 1",9.79 (5.47)
same,ISS7 Post-baseline Mean (SD),"outlier removed, 400 mg TID, Week 2",8.59 (5.80)
same,ISS7 Post-baseline Mean (SD),"outlier removed, 400 mg TID, Week 3",8.18 (5.41)
same,ISS7 Post-baseline Mean (SD),"outlier removed, 400 mg TID, Week 4",7.79 (5.03)
same,ISS7 Post-baseline Mean (SD),"outlier removed, 400 mg TID, Week 5",6.92 (5.87)
same,ISS7 Post-baseline Mean (SD),"outlier removed, 400 mg TID, Week 6",7.32 (6.05)
same,ISS7 Post-baseline Mean (SD),"outlier removed, 400 mg TID, Week 7",7.14 (5.35)
same,ISS7 Post-baseline Mean (SD),"outlier removed, 400 mg TID, Week 8",7.24 (5.51)
same,ISS7 Post-baseline Mean (SD),"outlier removed, 400 mg TID, Week 9",6.68 (5.31)
same,ISS7 Post-baseline Mean (SD),"outlier removed, 400 mg TID, Week 10",6.75 (5.25)
same,ISS7 Post-baseline Mean (SD),"outlier removed, 400 mg TID, Week 11",6.99 (5.53)
same,ISS7 Post-baseline Mean (SD),"outlier removed, 400 mg TID, Week 12",5.77 (5.26)
same,ISS7 % Change difference for rilzabrutinib vs. placebo LS Mean (95% CI),"400 mg BID, Week 1","−23.80 (−38.99, −8.60) %"
same,ISS7 % Change from baseline LS Mean (SE),"400 mg BID, Week 1",−33.92 (5.73) %
same,ISS7 Change difference for rilzabrutinib vs. placebo LS Mean (95% CI),"400 mg BID, Week 1",−3.14
same,ISS7 Change from baseline LS Mean (SE),"400 mg BID, Week 1",−5.06 (0.83)
same,ISS7 % Change difference for rilzabrutinib vs. placebo LS Mean (95% CI),"400 mg BID, Week 2","−17.28 (−32.06, −2.50) %"
same,ISS7 % Change from baseline LS Mean (SE),"400 mg BID, Week 2",−35.92 (5.58) %
same,ISS7 Change difference for rilzabrutinib vs. placebo LS Mean (95% CI),"400 mg BID, Week 2",−2.26
same,ISS7 Change from baseline LS Mean (SE),"400 mg BID, Week 2",−5.49 (0.83)
same,ISS7 Post-baseline Mean (SD),"400 mg BID, Week 2",10.32 (5.64)
same,ISS7 % Change difference for rilzabrutinib vs. placebo LS Mean (95% CI),"400 mg BID, Week 3","−20.30 (−35.19, −5.41) %"
same,ISS7 % Change from baseline LS Mean (SE),"400 mg BID, Week 3",−40.91 (5.60) %
same,ISS7 Change difference for rilzabrutinib vs. placebo LS Mean (95% CI),"400 mg BID, Week 3",−2.82
same,ISS7 Change from baseline LS Mean (SE),"400 mg BID, Week 3",−6.52 (0.87)
same,ISS7 Post-baseline Mean (SD),"400 mg BID, Week 3",9.16 (6.09)
same,ISS7 % Change difference for rilzabrutinib vs. placebo LS Mean (95% CI),"400 mg BID, Week 4","−20.53 (−36.37, −4.69) %"
same,ISS7 % Change from baseline LS Mean (SE),"400 mg BID, Week 4",−43.47 (5.96) %
same,ISS7 Change difference for rilzabrutinib vs. placebo LS Mean (95% CI),"400 mg BID, Week 4",−2.86
same,ISS7 Change from baseline LS Mean (SE),"400 mg BID, Week 4",−6.96 (0.93)
same,ISS7 Post-baseline Mean (SD),"400 mg BID, Week 4",8.32 (6.02)
same,ISS7 Post-baseline Mean (SD),"400 mg BID, Week 5",8.88 (6.81)
same,ISS7 Post-baseline Mean (SD),"400 mg BID, Week 6",8.85 (6.40)
same,ISS7 Post-baseline Mean (SD),"400 mg BID, Week 7",8.21 (6.16)
same,ISS7 Post-baseline Mean (SD),"400 mg BID, Week 8",7.33 (6.55)
same,ISS7 Post-baseline Mean (SD),"400 mg BID, Week 9",7.63 (7.11)
same,ISS7 Post-baseline Mean (SD),"400 mg BID, Week 10",8.17 (7.29)
same,ISS7 Post-baseline Mean (SD),"400 mg BID, Week 11",7.93 (6.94)
same,ISS7 % Change difference for rilzabrutinib vs. placebo LS Mean (95% CI),"400 mg BID, Week 12","−14.10 (−32.26, 4.06) %"
same,ISS7 % Change from baseline LS Mean (SE),"400 mg BID, Week 12",−48.31 (6.75) %
same,ISS7 Change difference for rilzabrutinib vs. placebo LS Mean (95% CI),"400 mg BID, Week 12",−1.96
same,ISS7 Change from baseline LS Mean (SE),"400 mg BID, Week 12",−7.73 (1.06)
same,ISS7 Post-baseline Mean (SD),"400 mg BID, Week 12",8.09 (6.95)
same,ISS7 % Change difference for rilzabrutinib vs. placebo LS Mean (95% CI),"400 mg QPM, Week 1","−8.25 (−23.30, 6.80) %"
same,ISS7 % Change from baseline LS Mean (SE),"400 mg QPM, Week 1",−18.38 (5.55) %
same,ISS7 Change difference for rilzabrutinib vs. placebo LS Mean (95% CI),"400 mg QPM, Week 1",−1.33
same,ISS7 Change from baseline LS Mean (SE),"400 mg QPM, Week 1",−3.25 (0.80)
same,ISS7 Post-baseline Mean (SD),"400 mg QPM, Week 1",13.08 (4.52)
same,ISS7 % Change difference for rilzabrutinib vs. placebo LS Mean (95% CI),"400 mg QPM, Week 2","−5.32 (−19.96, 9.32) %"
same,ISS7 % Change from baseline LS Mean (SE),"400 mg QPM, Week 2",−23.96 (5.37) %
same,ISS7 Change difference for rilzabrutinib vs. placebo LS Mean (95% CI),"400 mg QPM, Week 2",−0.76
same,ISS7 Change from baseline LS Mean (SE),"400 mg QPM, Week 2",−3.99 (0.80)
same,ISS7 % Change difference for rilzabrutinib vs. placebo LS Mean (95% CI),"400 mg QPM, Week 3","−8.38 (−23.14, 6.38) %"
same,ISS7 % Change from baseline LS Mean (SE),"400 mg QPM, Week 3",−28.99 (5.42) %
same,ISS7 Change difference for rilzabrutinib vs. placebo LS Mean (95% CI),"400 mg QPM, Week 3",−1.12
same,ISS7 Change from baseline LS Mean (SE),"400 mg QPM, Week 3",−4.82 (0.85)
same,ISS7 Post-baseline Mean (SD),"400 mg QPM, Week 3",11.60 (4.68)
same,ISS7 % Change difference for rilzabrutinib vs. placebo LS Mean (95% CI),"400 mg QPM, Week 4","−7.02 (−22.76, 8.71) %"
same,ISS7 % Change from baseline LS Mean (SE),"400 mg QPM, Week 4",−29.97 (5.75) %
same,ISS7 Change difference for rilzabrutinib vs. placebo LS Mean (95% CI),"400 mg QPM, Week 4",−0.93
same,ISS7 Change from baseline LS Mean (SE),"400 mg QPM, Week 4",−5.03 (0.89)
same,ISS7 Post-baseline Mean (SD),"400 mg QPM, Week 4",11.39 (4.79)
same,ISS7 Post-baseline Mean (SD),"400 mg QPM, Week 5",11.00 (4.68)
same,ISS7 Post-baseline Mean (SD),"400 mg QPM, Week 6",10.27 (5.26)
same,ISS7 Post-baseline Mean (SD),"400 mg QPM, Week 7",10.68 (5.34)
same,ISS7 Post-baseline Mean (SD),"400 mg QPM, Week 8",10.72 (5.26)
same,ISS7 Post-baseline Mean (SD),"400 mg QPM, Week 10",10.43 (5.30)
same,ISS7 Post-baseline Mean (SD),"400 mg QPM, Week 11",11.03 (5.55)
same,ISS7 % Change difference for rilzabrutinib vs. placebo LS Mean (95% CI),"400 mg QPM, Week 12","−0.54 (−18.55, 17.47) %"
same,ISS7 % Change from baseline LS Mean (SE),"400 mg QPM, Week 12",−34.75 (6.64) %
same,ISS7 Change difference for rilzabrutinib vs. placebo LS Mean (95% CI),"400 mg QPM, Week 12",0.58
same,ISS7 Change from baseline LS Mean (SE),"400 mg QPM, Week 12",−5.19 (1.02)
same,ISS7 % Change from baseline LS Mean (SE),"400 mg TID, Week 1",−37.45 (5.78) %
same,ISS7 Change difference for rilzabrutinib vs. placebo LS Mean (95% CI),"400 mg TID, Week 1",−4.21
same,ISS7 Change from baseline LS Mean (SE),"400 mg TID, Week 1",−6.13 (0.82)
same,ISS7 Post-baseline Mean (SD),"400 mg TID, Week 1",9.51 (5.64)
same,ISS7 % Change difference for rilzabrutinib vs. placebo LS Mean (95% CI),"400 mg TID, Week 2","−27.63 (−42.70, −12.56) %"
same,ISS7 % Change from baseline LS Mean (SE),"400 mg TID, Week 2",−46.27 (5.61) %
same,ISS7 Change difference for rilzabrutinib vs. placebo LS Mean (95% CI),"400 mg TID, Week 2",−4.14
same,ISS7 Change from baseline LS Mean (SE),"400 mg TID, Week 2",−7.37 (0.82)
same,ISS7 Post-baseline Mean (SD),"400 mg TID, Week 2",8.40 (5.82)
same,ISS7 % Change difference for rilzabrutinib vs. placebo LS Mean (95% CI),"400 mg TID, Week 3","−27.20 (−42.33, −12.08) %"
same,ISS7 % Change from baseline LS Mean (SE),"400 mg TID, Week 3",−47.81 (5.64) %
same,ISS7 Change difference for rilzabrutinib vs. placebo LS Mean (95% CI),"400 mg TID, Week 3",−3.58
same,ISS7 Change from baseline LS Mean (SE),"400 mg TID, Week 3",−7.29 (0.87)
same,ISS7 Post-baseline Mean (SD),"400 mg TID, Week 3",8.34 (5.42)
same,ISS7 % Change difference for rilzabrutinib vs. placebo LS Mean (95% CI),"400 mg TID, Week 4","−24.55 (−40.74, −8.36) %"
same,ISS7 % Change from baseline LS Mean (SE),"400 mg TID, Week 4",−47.50 (6.02) %
same,ISS7 Change difference for rilzabrutinib vs. placebo LS Mean (95% CI),"400 mg TID, Week 4",−3.23
same,ISS7 Change from baseline LS Mean (SE),"400 mg TID, Week 4",−7.33 (0.92)
same,ISS7 Post-baseline Mean (SD),"400 mg TID, Week 4",7.79 (5.03)
